The source of these data is ChEMBL document CHEMBL4765299 (Eur J Med Chem, 2020).

For data set [1], the system named is K562. The experiment in a line: Induction of mitochondrial membrane potential depolarization in human K562 cells assessed proportion of cells with collapsed MMP at 20 nM measured after 48 hrs by JC-1 staining based flow cytometry (reference value: 1.57%). Format: functional. In general terms: In flow cytometry, cells or beads pass a laser one at a time.
Data set [2] concerns K562. Put plainly: Induction of cell cycle arrest in human K562 cells assessed as accumulation at G2/M phase at 5 nM incubated for 48 hrs by propidium iodide/RNase staining based flow cytometry (reference value: 7.7%). Type of data set: functional.
Data set [3] concerns K562. Put plainly: Induction of cell cycle arrest in human K562 cells assessed as accumulation at G1 phase at 20 nM incubated for 48 hrs by propidium iodide/RNase staining based flow cytometry (reference value: 38.83%). Format: functional.
For data set [4], the system named is H22. The experiment in a line: Anti-tumor activity against mouse H22 cells allografted in ICR mice assessed as reduction in tumor weight at 15 mg/kg, iv administered daily for 21 days. Type of data set: functional. The settings on record: 504 h, time 21 day.
The subject of data set [5] is K562. Put plainly: Induction of cell cycle arrest in human K562 cells assessed as accumulation at S phase at 5 nM incubated for 48 hrs by propidium iodide/RNase staining based flow cytometry (reference value: 53.48%). Format: functional.
Data set [6] relates to H22. The experiment in a line: Anti-tumor activity against mouse H22 cells allografted in ICR mice assessed as reduction in tumor weight at 30 mg/kg, iv administered daily for 21 days. The settings on record: 504 h, time 21 day. Format: functional.
Data set [7] has as its system K562. The experiment in a line: Induction of cell cycle arrest in human K562 cells assessed as accumulation at G1 phase at 5 nM incubated for 48 hrs by propidium iodide/RNase staining based flow cytometry (reference value: 38.83%). Format: functional.
Data set [8] in a line: Toxicity in ICR mouse allografted with mouse H22 cells assessed as body weight loss at 30 mg/kg, iv administered daily for 21 days. Type of data set: organism-based. The following applies: in vivo, 504 h, dose 30 mg/kg/day, time 21 day.
Data set [9] relates to K562. Put plainly: Induction of mitochondrial membrane potential depolarization in human K562 cells assessed proportion of cells with collapsed MMP at 10 nM measured after 48 hrs by JC-1 staining based flow cytometry (reference value: 1.57%). Type of data set: functional.
Data set [10] is filed under the species Sus scrofa. The experiment in a line: Displacement of [3H]colchicine from porcine brain tubulin at 5 uM incubated for 2 hrs by TopCount scintillation counting method relative to control. Type of data set: tissue-based. For orientation: In a radioligand displacement assay an active substance lowers the binding of a labelled ligand.
The nature of data set [11]: Toxicity in ICR mouse allografted with mouse H22 cells assessed as heart morphological changes at 30 mg/kg, iv administered daily for 21 days by hematoxylin and eosin staining based microscopic analysis. Format: organism-based. The following applies: in vivo, 504 h, dose 30 mg/kg/day, time 21 day.
Data set [12] concerns K562. Put plainly: Induction of mitochondrial membrane potential depolarization in human K562 cells assessed proportion of cells with intact MMP at 10 nM measured after 48 hrs by JC-1 staining based flow cytometry (reference value: 98.12%). Format: functional.
Data set [13] has as its system HUVEC. The experiment in a line: Inhibition of cell migration in HUVEC assessed as decrease in wound closure after 24 hrs by scratch wound healing assay. Type of data set: functional, cell-based. The following applies: Homo sapiens, dose 5-20 nM.
The subject of data set [14] is K562. Put plainly: Induction of mitochondrial membrane potential depolarization in human K562 cells measured after 48 hrs by JC-1 staining based flow cytometry. Type of data set: functional, cell-based. The settings on record: dose 5-20 nM.
Data set [15] in a line: against C against y against t against o against t against o against x against i against c against i against t against y against a against g against a against i against n against s against t against h against u against m against a against n against H against F against L against - against 1 against c against e against l against l against s against a against s against s against e against s against s against e against d against a against s against r against e against d against u against c against t against i against o against n against i against n against c against e against l against l against v against i against a against b against i against l against i against t against y against m against e against a against s against u against r against e against d against a against f against t against e against r against 7 against 2 against h against r against s against b against y against M against T against T against a against s against s against a against y against. The following applies: Homo sapiens, HFL1. Format: ADME, tissue-based.

Data set [16] concerns K562. Put plainly: Induction of cell cycle arrest in human K562 cells assessed as accumulation at G2/M phase at 20 nM incubated for 48 hrs by propidium iodide/RNase staining based flow cytometry (reference value: 7.7%). Type of data set: functional.
The subject of data set [17] is HUVEC. Put plainly: Anti-angiogenesis activity in HUVEC assessed as inhibition of capillary-like tube formation at 10 nM incubated for 6 hrs by Matrigel-based optical microscopy. Type of data set: functional, cell-based. The settings on record: Homo sapiens.
A short description of data set [18]: Inhibition of porcine brain tubulin polymerization assessed as inhibition of microtubule assembly by measuring decrease in absorbance measured for 60 mins by fluorescence based analysis. Format: tissue-based, Sus scrofa.
In data set [19] the test system is K562. Put plainly: Induction of cell cycle arrest in human K562 cells assessed as accumulation at S phase at 20 nM incubated for 48 hrs by propidium iodide/RNase staining based flow cytometry (reference value: 53.48%). Type of data set: functional.
The test system of data set [20] is HUVEC. Put plainly: Anti-angiogenesis activity in HUVEC assessed as inhibition of capillary-like tube formation at 5 nM incubated for 6 hrs by Matrigel-based optical microscopy. Type of data set: functional, cell-based. The following applies: Homo sapiens.
The subject of data set [21] is HUVEC. The experiment in a line: Anti-angiogenesis activity in HUVEC assessed as inhibition of capillary-like tube formation at 20 nM incubated for 6 hrs by Matrigel-based optical microscopy. Type of data set: functional, cell-based. The following applies: Homo sapiens.

For orientation: inhibition in vivo means the change of the read-out against control, counted positive when it falls. What is called inhibition is how much of the control response was suppressed. A word on the pIC50: it is −log10 of the IC50, conventionally taken in molar units.

SMILES strings stand for the structures. pIC50: −log10 of the molar value. The source made the active and inactive calls. The rule behind the calls is not given here.

For the compound `C=C(c1cc(Cl)nc(NC)c1)c1ccc(OC)c(O)c1`, the Activity is on record as 38.84% in [1]; 9.4% in [2]; 36.65% in [3]; 50.66% in data set [5]; 39.94% in data set [7]; “Non-Toxic” in data set [8]. The Activity is 20.05% in [9]; “Non-Toxic” in [11]; 79.83% in [12]; “Dose-dependent effect” in data set [14]; 15.28% in [16]; 48.07% in data set [19]. The inhibition in vivo at 15 mg/kg/day in data set [4] came to 58.7%. For the same compound, the inhibition in vivo at 30 mg/kg/day in [6] turned out to be 68.7%. The inhibition in data set [10] was 79.3%; in data set [13], “Dose-dependent effect”. Besides, the pIC50 in [15] was 6.93; in data set [18], 5.50. In addition, the outcome in data set [17], in data set [20] and in data set [21] was Active.
